Legend:
[1] = Inhibition of rat intestinal alpha-glucosidase using sucrose as substrate assessed as glucose formation incubated for 10 mins prior to substrate addition measured after 30 mins by glucose oxidase method
[2] = system: Mus musculus; assay: Hypoglycemic effect in sucrose-challenged ICR mouse assessed as blood glucose level at 10 mg/kg, po after 120 mins by glucose oxidase method (reference value: 137.8 +/- 14.5 mg/dL); assay type: functional
[3] = system: Mus musculus; assay: Hypoglycemic effect in starch-challenged ICR mouse assessed as blood glucose level at 10 mg/kg, po after 30 mins by glucose oxidase method (reference value: 278.9 +/- 33.5 mg/dL); assay type: functional
[4] = system: Mus musculus; assay: Hypoglycemic effect in sucrose-challenged ICR mouse assessed as blood glucose level at 10 mg/kg, po after 60 mins by glucose oxidase method (reference value: 183.3 +/- 29.1 mg/dL); assay type: functional
[5] = system: Mus musculus; assay: Hypoglycemic effect in sucrose-challenged ICR mouse assessed as blood glucose level at 10 mg/kg, po after 30 mins by glucose oxidase method (reference value: 187.4 +/- 21.6 mg/dL); assay type: functional
[6] = system: Mus musculus; assay: Hypoglycemic effect in starch-challenged ICR mouse assessed as blood glucose level at 10 mg/kg, po after 60 mins by glucose oxidase method (reference value: 243.0 +/- 29.0 mg/dL); assay type: functional
[7] = system: Mus musculus; assay: Hypoglycemic effect in sucrose-challenged ICR mouse assessed as glucose AUC at 10 mg/kg, po by glucose oxidase method (reference value: 323.2 +/- 37.2 mg.hr/dL); assay type: functional, organism-based; parameters: dose 10 mg/kg
[8] = system: Mus musculus; assay: Hypoglycemic effect in starch-challenged ICR mouse assessed as blood glucose level at 10 mg/kg, po after 120 mins by glucose oxidase method (reference value: 174.2 +/- 22.9 mg/dL); assay type: functional
[9] = system: Mus musculus; assay: Hypoglycemic effect in starch-challenged ICR mouse assessed as glucose AUC at 10 mg/kg, po by glucose oxidase method (reference value: 430.1 +/- 44.7 mg.hr/dL); assay type: functional, organism-based; parameters: dose 10 mg/kg

Compound | IC50 [1] | Activity [2] | Activity [3] | Activity [4] | Activity [5] | Activity [6] | AUC [7] | Activity [8] | AUC [9]
CN1[C@H](CO)[C@@H](O)C[C@@H](O)[C@@H]1CO | 22.2 µM | – | – | – | – | – | – | – | –
OC[C@H]1N[C@H](CO)[C@@H](O)[C@@H](O)[C@H]1O | 24.9 µM | – | – | – | – | – | – | – | –
C[C@H]1N[C@H](CO)[C@@H](O)[C@H](O)[C@H]1O | 22.1 µM | – | – | – | – | – | – | – | –
OC[C@H]1N[C@H](CO)[C@@H](O)[C@H](O)[C@H]1O | 0.09 µM | 136.4 mg/dL | 129.3 mg/dL | 149.9 mg/dL | 126 mg/dL | 176.4 mg/dL | 2.68e+06 ng·h/mL | 161.2 mg/dL | 2.99e+06 ng·h/mL
CN1[C@H](CO[C@@H]2O[C@H](CO)[C@@H](O)[C@H](O)[C@H]2O)[C@H](O)[C@@H](O)[C@H](O)[C@H]1CO | 24.3 µM | – | – | – | – | – | – | – | –
CCCCN1[C@H](CO[C@@H]2O[C@H](CO)[C@@H](O)[C@H](O)[C@H]2O)[C@H](O)[C@@H](O)[C@H](O)[C@H]1CO | 22.9 µM | – | – | – | – | – | – | – | –
OC[C@@H]1N[C@H](CO)[C@@H](O)[C@H](O)[C@@H]1O | 19.2 µM | – | – | – | – | – | – | – | –
OCCCCCCCC[C@H]1N[C@H](CO)[C@@H](O)[C@H](O)[C@H]1O | 5.53 µM | – | – | – | – | – | – | – | –
CN1[C@H](CO)[C@H](O)C[C@H](O)[C@H]1CO | 20 µM | – | – | – | – | – | – | – | –

Second part, led by results:

IC50 [1] | Compound | Activity [2] | Activity [3] | Activity [4] | Activity [5] | Activity [6] | AUC [7] | Activity [8] | AUC [9]
0.72 µM | C[C@@H]1[C@H](O)[C@@H](O)[C@H](O)[C@@H](CO)N1C | – | – | – | – | – | – | – | –
0.92 µM | OC[C@@H](O)[C@H]1N[C@H](CO)[C@@H](O)[C@@H]1O | 136.7 mg/dL | 262.8 mg/dL | 147.3 mg/dL | 179 mg/dL | 216.2 mg/dL | 2.94e+06 ng·h/mL | 150.3 mg/dL | 3.9e+06 ng·h/mL
24.3 µM | OC[C@@H]1N[C@H](CO)[C@@H](O)[C@H](O)[C@H]1O | – | – | – | – | – | – | – | –
38.6 µM | OC[C@H]1N[C@H](CO[C@H]2O[C@H](CO)[C@@H](O)[C@H](O)[C@H]2O)[C@H](O)[C@@H](O)[C@@H]1O | – | – | – | – | – | – | – | –
0.08 µM | CN1[C@H](CO)[C@H](O)[C@@H](O)[C@H](O)[C@H]1CO | 115.6 mg/dL | 141 mg/dL | 114 mg/dL | 121.4 mg/dL | 144.8 mg/dL | 2.28e+06 ng·h/mL | 141.2 mg/dL | 2.72e+06 ng·h/mL
4.22 µM | OC[C@H]1N[C@H](CO[C@@H]2O[C@H](CO)[C@@H](O)[C@H](O)[C@H]2O)[C@H](O)[C@@H](O)[C@@H]1O | 133.3 mg/dL | 187.1 mg/dL | 135.1 mg/dL | 130.8 mg/dL | 204.1 mg/dL | 2.58e+06 ng·h/mL | 146.8 mg/dL | 3.41e+06 ng·h/mL
0.54 µM | C[C@H]1O[C@H](O[C@H]2[C@H](O)[C@@H](O)[C@@H](O[C@H]3[C@H](O)[C@@H](O)C(O)O[C@@H]3CO)O[C@@H]2CO)[C@H](O)[C@@H](O)[C@@H]1N[C@H]1C=C(CO)[C@@H](O)[C@H](O)[C@H]1O (stereo partly specified) [ACARBOSE] | 111.9 mg/dL | 164.8 mg/dL | 118.4 mg/dL | 114.6 mg/dL | 187.7 mg/dL | 2.23e+06 ng·h/mL | 177.5 mg/dL | 3.34e+06 ng·h/mL
